In this assay the target is T1, CFTR (Homo sapiens, UniProt P13569, DEL508-508).
T1 construct: endogenous in cells; host or cells: primary human bronchial epithelial cells from CF subjects (F508del/MF-HBE), differentiated at air-liquid interface
Put plainly: HBE assay: Ussing chamber assay of CFTR-mediated short-circuit currents. Format: cell-based. The settings on record: for pEC50: read-out: HBE EC50. The essentials:
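CFTR-mediated Isc (μA/cm²) equals the peak response to apical 20 μM forskolin minus the residual after a 20 μM each BPO/GlyH-101/CFTR inhibitor 172 cocktail, recorded in Ussing chambers at Vhold 0 mV, 37 °C, pH 7.4, with 30 μM apical amiloride. Cells were F508del/MF HBE cultures preincubated 18-24 h with corrector (concentration range or 10 μM) plus 1 μM ivacaftor in 20% human serum.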

The mark [1] stands for this setting: Table 12, at 10 μM, read-out: HBE Activity at 10 μM (%).
Where [2] appears, read: HBE assay, read-out: HBE Max activity (%).
[3] abbreviates: Table 11, read-out: HBE Max Activity (%).
[4] abbreviates: HBE assay, 10 μM, read-out: HBE Activity at 10 μM (%).
Setting [5] is: Table 13, at 10 μM, read-out: HBE Activity at 10 μM (%).
The mark [6] stands for this setting: Table 13, read-out: HBE Max Activity (%).
Setting [7] is: Table 12, read-out: HBE Max Activity (%).

Results on 32 molecules are retold here after patent US20240150377A1, “MODULATORS OF CYSTIC FIBROSIS TRANSMEMBRANE CONDUCTANCE REGULATOR” (VERTEX PHARMACEUTICALS INCORPORATED, priority 2020, published 2024).

pEC50: −log10 of the molar value. Read-outs that look alike come from different tables or passages of the source.

T1 sequence (P13569 with tags, fused parts or gaps DEL508-508): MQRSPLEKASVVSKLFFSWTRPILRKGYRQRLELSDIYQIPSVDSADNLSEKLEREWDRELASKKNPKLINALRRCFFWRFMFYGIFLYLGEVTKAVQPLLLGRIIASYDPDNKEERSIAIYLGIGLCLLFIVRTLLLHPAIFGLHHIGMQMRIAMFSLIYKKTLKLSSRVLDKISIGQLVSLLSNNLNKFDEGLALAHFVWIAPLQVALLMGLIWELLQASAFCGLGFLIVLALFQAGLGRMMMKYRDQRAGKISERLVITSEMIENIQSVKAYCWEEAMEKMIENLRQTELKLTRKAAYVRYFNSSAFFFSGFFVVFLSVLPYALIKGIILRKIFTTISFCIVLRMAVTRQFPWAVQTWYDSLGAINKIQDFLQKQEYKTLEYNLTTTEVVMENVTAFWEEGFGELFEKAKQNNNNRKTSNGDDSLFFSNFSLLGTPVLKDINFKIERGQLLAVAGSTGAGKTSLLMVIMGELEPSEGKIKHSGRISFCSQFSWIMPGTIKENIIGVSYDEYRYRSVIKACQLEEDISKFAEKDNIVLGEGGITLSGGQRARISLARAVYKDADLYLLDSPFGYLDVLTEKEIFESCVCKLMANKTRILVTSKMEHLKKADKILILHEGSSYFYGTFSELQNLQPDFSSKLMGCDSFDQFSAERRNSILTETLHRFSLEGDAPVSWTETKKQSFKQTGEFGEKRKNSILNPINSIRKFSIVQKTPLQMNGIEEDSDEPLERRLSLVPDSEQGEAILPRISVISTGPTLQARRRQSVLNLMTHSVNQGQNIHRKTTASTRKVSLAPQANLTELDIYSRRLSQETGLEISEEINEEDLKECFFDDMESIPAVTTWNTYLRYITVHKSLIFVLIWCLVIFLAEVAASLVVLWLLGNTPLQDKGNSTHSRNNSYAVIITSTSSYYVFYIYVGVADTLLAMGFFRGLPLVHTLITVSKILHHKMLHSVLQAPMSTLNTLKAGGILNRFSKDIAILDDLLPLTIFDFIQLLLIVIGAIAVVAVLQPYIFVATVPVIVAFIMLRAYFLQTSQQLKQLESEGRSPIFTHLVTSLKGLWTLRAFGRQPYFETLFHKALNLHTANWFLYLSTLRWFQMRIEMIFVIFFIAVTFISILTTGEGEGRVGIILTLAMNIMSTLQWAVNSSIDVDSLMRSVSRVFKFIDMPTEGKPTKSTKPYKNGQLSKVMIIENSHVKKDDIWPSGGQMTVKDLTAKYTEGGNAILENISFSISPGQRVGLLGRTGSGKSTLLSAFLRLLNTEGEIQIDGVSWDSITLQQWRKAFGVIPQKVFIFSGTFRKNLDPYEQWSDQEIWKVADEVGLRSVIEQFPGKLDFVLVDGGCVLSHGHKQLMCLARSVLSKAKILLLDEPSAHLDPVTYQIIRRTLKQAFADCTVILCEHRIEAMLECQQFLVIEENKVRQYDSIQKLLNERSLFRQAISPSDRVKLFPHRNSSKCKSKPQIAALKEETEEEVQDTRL

Consider `Cc1cccc(C)c1-c1cc2nc(n1)NS(=O)(=O)c1cccc(c1)C(=O)N(Cc1nc(C(C)(C)C)co1)[C@H](CC(C)(C)C)CO2` [Compound 167], for which the activation at 10 µM under setting [1] was over 600%. `Cc1cccc(C)c1-c1cc2nc(n1)NS(=O)(=O)c1cccc(c1)C(=O)N(Cc1ncc(OC(F)(F)F)cn1)[C@H](CC(C)(C)C)CO2` [Compound 1425]: the pEC50 (commonly the EC50 on a negative log10 scale, so that one unit is a factor of ten) (HBE assay) is over 6.00. Also, under setting [2], the Emax is over 60%. Consider `Cc1cccc(C)c1-c1cc2nc(n1)NS(=O)(=O)c1cccc(c1)C(=O)N(Cc1nc(C)c(C)n1C)[C@H](CC(C)(C)C)CO2` [Compound 269], for which, under setting [1], the activation at 10 µM was over 600%. In the case of `Cc1cccc(C)c1-c1cc2nc(n1)NS(=O)(=O)c1cccc(c1)C(=O)N(Cc1cc(C3CC3)on1)[C@H](CC(C)(C)C)CO2` [Compound 1071], under “Table 11”, the negative-log EC50 (pEC50) was over 6.00. Besides, the Emax under setting [3] was over 60%. Take `CCOc1cnc(CN2C(=O)c3cccc(c3)S(=O)(=O)Nc3nc(cc(-c4c(C)cccc4C)n3)OC[C@H]2CC2(C)CC2)nc1` [Compound 1524]: the activation at 10 µM under setting [4] was over 60%. `Cc1cccc(C)c1-c1cc2nc(n1)NS(=O)(=O)c1cccc(c1)C(=O)N(CC(=O)NC1CCC(C)(C)CC1)[C@H](CC(C)(C)C)CO2` [Compound 179]: the activation at 10 µM under setting [5] was over 600%. `Cc1cccc(C)c1-c1cc2nc(n1)NS(=O)(=O)c1cccc(c1)C(=O)N(Cc1ccc(N3CCC(C(C)(C)C)CC3)cn1)[C@H](CC(C)(C)C)CO2` [Compound 258]: under setting [5], the activation at 10 µM was over 600%.

On to `COc1ccc(F)c(CN2C(=O)c3cccc(c3)S(=O)(=O)Nc3nc(cc(-c4c(C)cccc4C)n3)OC[C@H]2CC(C)(C)C)n1` [Compound 1066], for which the negative logarithm of the EC50 (pEC50) (Table 13) is over 6.00. Besides, the Emax under setting [6] is over 60%. Regarding `Cc1cccc(C)c1-c1cc2nc(n1)NS(=O)(=O)c1cccc(c1)C(=O)N(Cc1cccc(N(C)C(C)C)n1)[C@H](CC(C)(C)C)CO2` [Compound 737], the negative-log EC50 (pEC50) (Table 11) was over 6.00. Also, the Emax under setting [3] is over 60%. Regarding `Cc1cccc(C)c1-c1cc2nc(n1)NS(=O)(=O)c1cccc(n1)C(=O)N(Cc1cccc(N(C)C3CC4(CC4)C3)n1)[C@H](CC(C)(C)C)CO2` [Compound 1143], the pEC50 (Table 13) is over 6.00. For the same molecule, the Emax under setting [6] is over 60%. Consider `CCOc1cnc(CN2C(=O)c3cccc(c3)S(=O)(=O)Nc3nc(cc(-c4c(C)cccc4C)n3)OC[C@H]2CC2(C(F)(F)F)CC2)nc1` [Compound 1490], for which the negative-log EC50 (pEC50) (HBE assay) is over 6.00. Also, the Emax under setting [2] is over 60%. As for `COCCN(c1ccc(C)c(CN2C(=O)c3cccc(c3)S(=O)(=O)Nc3nc(cc(-c4c(C)cccc4C)n3)OC[C@H]2CC(C)(C)C)n1)C(C)C` [Compound 1343], for the setting “HBE assay”, the negative logarithm of the EC50 (pEC50) was over 6.00. For the same molecule, under setting [2], the Emax was over 60%.

`Cc1cccc(C)c1-c1cc2nc(n1)NS(=O)(=O)c1cccc(c1)C(=O)N(Cc1ncc(OC(C)C)cc1C#N)[C@H](CC(C)(C)C)CO2` [Compound 1351]: the pEC50 (HBE assay) was over 6.00. Also, the Emax under setting [2] was over 60%. Regarding `CCOc1cnc(CN2C(=O)c3cccc(c3)S(=O)(=O)Nc3nc(cc(-c4c(C)cccc4C)n3)OC[C@H]2CC(C)(C)C)nc1` [Compound 720], under “Table 11”, the negative logarithm of the EC50 (pEC50) was over 6.00. Also, the Emax under setting [3] is over 60%. In the case of `CC[C@@H](C)Oc1cnc(CN2C(=O)c3cccc(c3)S(=O)(=O)Nc3nc(cc(-c4c(C)cccc4C)n3)OC[C@H]2CC(C)(C)C)nc1` [Compound 1375], the negative-log EC50 (pEC50) (HBE assay) was over 6.00. Further, the Emax under setting [2] was over 60%. As to `COCC(COC)N(C)c1cncc(CN2C(=O)c3cccc(c3)S(=O)(=O)Nc3nc(cc(-c4c(C)cccc4C)n3)OC[C@H]2CC(C)(C)C)n1` [Compound 1531], the activation at 10 µM under setting [4] is over 60%. Take `Cc1cccc(C)c1-c1cc2nc(n1)NS(=O)(=O)c1cccc(c1)C(=O)N(Cc1ccc(-c3cncnc3)cc1)[C@H](CC(C)(C)C)CO2` [Compound 144, (11R)-6-(2,6-dimethylphenyl)-11-(2,2-dimethylpropyl)-2,2-dioxo-12-[(4-pyrimidin-5-ylphenyl)methyl]-9-oxa-2λ^6-thia-3,5,12,19-tetrazatricyclo[12.3.1.14,8]nonadeca-1(18),4(19),5,7,14,16-hexaen-13-one]: the negative-log EC50 (pEC50) (Table 10) is over 6.00. Moreover, the Emax (Table 10, read-out: HBE Max activity (%)) was over 60%. In the case of `Cc1cnc(CN2C(=O)c3cccc(c3)S(=O)(=O)Nc3nc(cc(-c4c(C)cccc4C)n3)OC[C@H]2CC(C)(C)C)nc1N1CCCC1(C)C` [Compound 327], the activation at 10 µM under setting [1] is over 600%. For the molecule `Cc1ccccc1CNC(=O)CN1C(=O)c2cccc(c2)S(=O)(=O)Nc2nc(cc(-c3c(C)cccc3C)n2)OC[C@H]1CC(C)(C)C` [Compound 217], under setting [1], the activation at 10 µM was over 600%. For `CCCOc1cnc(CN2C(=O)c3cccc(c3)S(=O)(=O)Nc3nc(cc(-c4c(C)cccc4C)n3)OC[C@H]2CC(C)(C)C)nc1` [Compound 1521], the activation at 10 µM under setting [4] is over 60%. For the molecule `Cc1cccc(C)c1-c1cc2nc(n1)NS(=O)(=O)c1cccc(c1)C(=O)N(Cc1cnc(N3CCC(C)(C)C3)nc1)[C@H](CC(C)(C)C)CO2` [Compound 272], under “Table 12”, the negative logarithm of the EC50 (pEC50) was over 6.00. The Emax under setting [7] is over 60%.

For the molecule `Cc1cccc(C)c1-c1cc2nc(n1)NS(=O)(=O)c1cccc(c1)C(=O)N(Cc1ccc(C3CCCCC3)c(C)n1)[C@H](CC(C)(C)C)CO2` [Compound 467], the activation at 10 µM (Table 10, at 10 μM, read-out: HBE activity at 10 (μM) (%)) is over 60%.

Turning to `Cc1cccc(C)c1-c1cc2nc(n1)NS(=O)(=O)c1cccc(c1)C(=O)N(Cc1cccc(-c3ncccn3)n1)[C@H](CC(C)(C)C)CO2` [Compound 590], for the setting “Table 12”, the negative-log EC50 (pEC50) was over 6.00. The Emax under setting [7] is over 60%. Consider `Cc1cccc(C)c1-c1cc2nc(n1)NS(=O)(=O)c1cccc(c1)C(=O)N(Cc1ncc(C3CC4(COC4)C3)cn1)[C@H](CC(C)(C)C)CO2` [Compound 161], for which the pEC50 (Table 13) was over 6.00. The Emax under setting [6] is over 60%. `Cc1cccc(C)c1-c1cc2nc(n1)NS(=O)(=O)c1cccc(c1)C(=O)N(CC(=O)N1CCOCC1)[C@H](CC(C)(C)C)CO2` [Compound 197]: the activation at 10 µM under setting [5] was over 600%.

Consider `CCN(C)c1ccnc(CN2C(=O)c3cccc(c3)S(=O)(=O)Nc3nc(cc(-c4c(C)cccc4C)n3)OC[C@H]2CC(C)(C)C)n1` [Compound 1357], for which, under “HBE assay”, the pEC50 was over 6.00. Moreover, the Emax under setting [2] is over 60%. Take `COC1CC2(C1)CN(c1cnc(CN3C(=O)c4cccc(c4)S(=O)(=O)Nc4nc(cc(-c5c(C)cccc5C)n4)OC[C@H]3CC(C)(C)C)nc1)C2` [Compound 868]: the negative logarithm of the EC50 (pEC50) (Table 13) was over 6.00. The Emax under setting [6] is over 60%. As for `Cc1cccc(C)c1-c1cc2nc(n1)NS(=O)(=O)c1cccc(c1)C(=O)N(Cc1ncc(N3CCOC(C)(C)C3)cn1)[C@H](CC(C)(C)C)CO2` [Compound 1156], for the setting “Table 13”, the negative-log EC50 (pEC50) is over 6.00. For the same molecule, the Emax under setting [6] is over 60%.

As to `Cc1cccc(C)c1-c1cc2nc(n1)NS(=O)(=O)c1cccc(c1)C(=O)N(CC(=O)N1CCOCC1(C)C)[C@H](CC(C)(C)C)CO2` [Compound 214], the activation at 10 µM under setting [5] is over 600%. `Cc1cccc(C)c1-c1cc2nc(n1)NS(=O)(=O)c1cccc(c1)C(=O)N(Cc1ncccc1NCC(C)(C)C)[C@H](CC(C)(C)C)CO2` [Compound 724]: the negative-log EC50 (pEC50) (Table 11) is over 6.00. The Emax under setting [3] is over 60%. `COC[C@@H](C)N(C)c1ccnc(CN2C(=O)c3cccc(c3)S(=O)(=O)Nc3nc(cc(-c4c(C)cccc4C)n3)OC[C@H]2CC(C)(C)C)n1` [Compound 446]: for the setting “Table 12”, the negative logarithm of the EC50 (pEC50) was over 6.00. For the same molecule, under setting [7], the Emax was over 60%. Turning to `Cc1cccc(C)c1-c1cc2nc(n1)NS(=O)(=O)c1cccc(c1)C(=O)N(Cc1cncc(N3CCC[C@@H]3C)c1)[C@H](CC(C)(C)C)CO2` [Compound 283], the activation at 10 µM under setting [1] is over 600%.
